Where a name gives a salt, the structure may show the parent alone.
Legend:
[1] = biological target: T1, MOR (Rattus norvegicus, UniProt P33535); assay: competition radioligand binding, rat brain membranes, [3H]DAMGO; conditions: for Ki: rat brain membranes, read-out: opioid receptor binding Ki MOR
T1 construct: Membranes were prepared from Sprague-Dawley rat brains or guinea-pig brains according to the described procedures; tissue Labortierkunde und Laborgenetik, Medizinische Universität Wien; host or cells: Sprague-Dawley rat brain without cerebella

[2] = test system: male CD1 mice; assay: acetic acid-induced writhing assay after sc administration; assay type: in vivo, mouse; conditions: for ED50: Mus musculus, 0.5 h, read-out: ED50 (95% CI), mice, sc, inhibition of writhing 30 min after drug administration
[3] = test system: peripheral opioid receptors; assay: antagonism by naloxone methiodide in the acetic acid-induced writhing assay; assay type: in vivo, mouse; conditions: sc co-administration with naloxone methiodide 1 mg/kg; agonist 50 or 200 μg/kg sc; 30 min
Excerpt: To determine whether targeted 6-amino acid and 6-dipeptide analogues inhibit writhing behavior in mice through peripheral opioid receptors activation, we used naloxone methiodide.[27]
Values are shown as mean of writhes ± SEM (n = 6–7 mice per group). ***P < 0.001 vs control group; ^#P < 0.05, ^##P < 0.01 and ^###P < 0.001 vs agonist treated group, ANOVA with Tukey’s post hoc test.
Writhing was induced in male CD1 mice by ip injection of a 0.6% acetic acid aqueous solution as described previously.[48],[62] Groups of mice were administered sc different doses of test compound or saline (control), and 5 min prior to testing (25 min after drug or saline), each animal received an ip injection of acetic acid solution. Each mouse was placed in individual transparent Plexiglas chambers, and the number of writhes was counted during a 10 min observation period. […] For the antagonism study, naloxone methiodide was sc co-administered with the respective opioid agonist, and writhing was assessed as described above.

T1 sequence (P33535 whole entry): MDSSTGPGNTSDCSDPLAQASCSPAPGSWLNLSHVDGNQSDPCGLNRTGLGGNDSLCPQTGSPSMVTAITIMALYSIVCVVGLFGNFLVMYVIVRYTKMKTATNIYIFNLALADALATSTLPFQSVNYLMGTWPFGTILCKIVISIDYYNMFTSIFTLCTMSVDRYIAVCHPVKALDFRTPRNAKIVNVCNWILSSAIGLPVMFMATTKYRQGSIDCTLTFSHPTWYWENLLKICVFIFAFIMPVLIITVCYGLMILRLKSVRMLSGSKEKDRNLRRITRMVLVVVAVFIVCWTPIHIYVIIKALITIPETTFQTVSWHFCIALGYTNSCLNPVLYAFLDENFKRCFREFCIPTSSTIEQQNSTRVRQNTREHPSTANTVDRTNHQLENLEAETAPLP

Compound: CC[C@H](N[C@H]1CC[C@@]2(OC)[C@H]3Cc4ccc(O)c5c4[C@@]2(CCN3C)[C@H]1O5)C(=O)O [Compound 19a, (2S)-2-[(4,5α-Epoxy-3-hydroxy-14β-methoxy-17-methylmorphinan-6α-yl)amino]-2-ethylacetic Acid Dihydrochloride]
- Ki ratio MOR/DOR/KOR ([1]; from Ki in rat (MOR, DOR) and guinea-pig (KOR) brain membranes): 1/49/189
- DOR/MOR selectivity ratio ([1]; from Ki in rat brain, for 1 from Ki of ref 44): 49
- Ki [1]: 0.76 ± 0.19 nM
- ED50 [2]: < 0.02 mg/kg
- ED50 (95% CI) ([2]; mice, inhibition of writhing 30 min after drug administration): 17.5 (5.13–59.6) μg/kg
- effect of naloxone methiodide on antinociceptive effect [3]: reversed

Compound: CO[C@@]12CC[C@H](N[C@H](C(=O)N[C@@H](Cc3ccc(O)cc3)C(=O)O)C(C)C)[C@@H]3Oc4c(O)ccc5c4[C@@]31CCN(C)[C@@H]2C5 [Compound 22a, (2S)-2-[[(4,5α-Epoxy-3-hydroxy-14β-methoxy-17-methylmorphinan-6α-yl)amino]-(2S)-3-methylbutyrylamino]-3-(4-hydroxyphenyl)propionic Acid]
- Ki [1]: 0.82 ± 0.13 nM
- increase in MOR binding affinity vs comparator ([1]; rat brain, 17b vs 4b, 16a/b vs 7a/b, 22a/b vs 7a, 7b and 9b, 14a vs 14b): 4 to 7 times
- ED50 [2]: 0.178 mg/kg
- higher antinociceptive potency than morphine ([2]; writhing assay, mice): 2.5 times
- effect of naloxone methiodide on antinociceptive effect [3]: reversed
